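Five compound concentrations were applied to cells in 96-well plates for 48 hours; endpoints were derived by simple linear interpolation of the resulting dose-response curve. At the GI50, growth is halved. TGI: total growth inhibition.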
What was measured:
Assay in all cases: growth of human tumour cells (NCI), 48 h
OVCAR-3 ovarian = test system: OVCAR-3 ovarian
ACHN renal = test system: ACHN renal
HCT-116 colon = test system: HCT-116 colon
KM12 colon = test system: KM12 colon
OVCAR-8 ovarian = test system: OVCAR-8 ovarian
COLO 205 colon = test system: COLO 205 colon
UACC-62 melanoma = test system: UACC-62 melanoma
HOP-62 NSCLC = test system: HOP-62 NSCLC
SK-OV-3 ovarian = test system: SK-OV-3 ovarian
KM20L2 colon = test system: KM20L2 colon
NCI-H460 lung = test system: NCI-H460 lung
M14 melanoma = test system: M14 melanoma
MALME-3M melanoma = test system: MALME-3M melanoma
A549 NSCLC = test system: A549 NSCLC
RXF 393 renal = test system: RXF 393 renal
OVCAR-5 ovarian = test system: OVCAR-5 ovarian
NCI-H522 lung = test system: NCI-H522 lung
SN12C renal = test system: SN12C renal
HT29 colon = test system: HT29 colon
786-0 renal = test system: 786-0 renal
U251 CNS = test system: U251 CNS
SK-MEL-5 melanoma = test system: SK-MEL-5 melanoma
UACC-257 melanoma = test system: UACC-257 melanoma
LOX IMVI melanoma = test system: LOX IMVI melanoma
RPMI-8226 leukemia = test system: RPMI-8226 leukemia
DMS 114 small cell lung = test system: DMS 114 small cell lung
SF-268 CNS = test system: SF-268 CNS
EKVX NSCLC = test system: EKVX NSCLC
SNB-19 CNS = test system: SNB-19 CNS
CAKI-1 renal = test system: CAKI-1 renal
K-562 leukemia = test system: K-562 leukemia
NCI-H23 lung = test system: NCI-H23 lung
SNB-75 CNS = test system: SNB-75 CNS
RXF-631 renal = test system: RXF-631 renal
DLD-1 colon = test system: DLD-1 colon
SNB-78 CNS = test system: SNB-78 CNS
M19-MEL melanoma = test system: M19-MEL melanoma
HL-60(TB) leukemia = test system: HL-60(TB) leukemia
XF 498 CNS = test system: XF 498 CNS
TK-10 renal = test system: TK-10 renal
HOP-18 NSCLC = test system: HOP-18 NSCLC
HCC-2998 colon = test system: HCC-2998 colon
SK-MEL-28 melanoma = test system: SK-MEL-28 melanoma
SF-539 CNS = test system: SF-539 CNS
HOP-92 NSCLC = test system: HOP-92 NSCLC
A498 renal = test system: A498 renal
NCI-H226 lung = test system: NCI-H226 lung
UO-31 renal = test system: UO-31 renal
OVCAR-4 ovarian = test system: OVCAR-4 ovarian
LXFL 529 NSCLC = test system: LXFL 529 NSCLC
IGROV1 ovarian = test system: IGROV1 ovarian
SW-620 colon = test system: SW-620 colon
DMS 273 small cell lung = test system: DMS 273 small cell lung
SF-295 CNS = test system: SF-295 CNS
CCRF-CEM leukemia = test system: CCRF-CEM leukemia
SK-MEL-2 melanoma = test system: SK-MEL-2 melanoma
HCT-15 colon = test system: HCT-15 colon
MOLT-4 leukemia = test system: MOLT-4 leukemia

CCOC(=O)C1N(S(=O)(=O)c2ccc(C)cc2)CCC12C(c1ccc(OC)c(OC)c1)=Nc1ccccc12 (stereo unspecified)
TGI (OVCAR-3 ovarian): > 100 µM | TGI (ACHN renal): > 100 µM | TGI (HCT-116 colon): > 100 µM | TGI (KM12 colon): > 100 µM | TGI (OVCAR-8 ovarian): > 100 µM | TGI (COLO 205 colon): > 100 µM | TGI (UACC-62 melanoma): > 100 µM | TGI (HOP-62 NSCLC): > 100 µM | TGI (SK-OV-3 ovarian): > 100 µM | TGI (KM20L2 colon): > 100 µM | TGI (NCI-H460 lung): > 100 µM | TGI (M14 melanoma): > 100 µM | TGI (MALME-3M melanoma): > 100 µM | TGI (A549 NSCLC): > 100 µM | TGI (RXF 393 renal): > 100 µM | TGI (OVCAR-5 ovarian): > 100 µM | TGI (NCI-H522 lung): > 100 µM | TGI (SN12C renal): > 100 µM | TGI (HT29 colon): > 100 µM | TGI (786-0 renal): > 100 µM | TGI (U251 CNS): > 100 µM | TGI (SK-MEL-5 melanoma): > 100 µM | TGI (UACC-257 melanoma): > 100 µM | TGI (LOX IMVI melanoma): > 100 µM | TGI (RPMI-8226 leukemia): > 100 µM | TGI (DMS 114 small cell lung): > 100 µM | TGI (SF-268 CNS): > 100 µM | TGI (EKVX NSCLC): > 100 µM | TGI (SNB-19 CNS): > 100 µM | TGI (CAKI-1 renal): > 100 µM | TGI (K-562 leukemia): > 100 µM | TGI (NCI-H23 lung): > 100 µM | TGI (SNB-75 CNS): > 100 µM | TGI (RXF-631 renal): > 100 µM | TGI (DLD-1 colon): > 100 µM | TGI (SNB-78 CNS): > 100 µM | TGI (M19-MEL melanoma): > 100 µM | TGI (HL-60(TB) leukemia): > 100 µM | TGI (XF 498 CNS): > 100 µM | TGI (TK-10 renal): > 100 µM | TGI (HOP-18 NSCLC): > 100 µM | TGI (HCC-2998 colon): > 100 µM | TGI (SK-MEL-28 melanoma): > 100 µM | TGI (SF-539 CNS): > 100 µM | TGI (HOP-92 NSCLC): > 100 µM | TGI (A498 renal): > 100 µM | TGI (NCI-H226 lung): > 100 µM | TGI (UO-31 renal): > 100 µM | TGI (OVCAR-4 ovarian): > 100 µM | TGI (LXFL 529 NSCLC): > 100 µM | TGI (IGROV1 ovarian): > 100 µM | TGI (SW-620 colon): > 100 µM | TGI (DMS 273 small cell lung): > 100 µM | TGI (SF-295 CNS): > 100 µM | TGI (CCRF-CEM leukemia): > 100 µM

C[PH+](C)C.C[PH+](C)C.[Au]
TGI (OVCAR-3 ovarian): 15.7 µM | TGI (ACHN renal): > 68.4 µM | TGI (HCT-116 colon): 27.7 µM | TGI (KM12 colon): 41.9 µM | TGI (OVCAR-8 ovarian): 19 µM | TGI (COLO 205 colon): > 34.2 µM | TGI (UACC-62 melanoma): 18.2 µM | TGI (HOP-62 NSCLC): 98 µM | TGI (SK-OV-3 ovarian): > 90.2 µM | TGI (KM20L2 colon): 47.8 µM | TGI (NCI-H460 lung): > 100 µM | TGI (M14 melanoma): 7.45 µM | TGI (MALME-3M melanoma): 4.02 µM | TGI (A549 NSCLC): > 100 µM | TGI (RXF 393 renal): 2.89 µM | TGI (OVCAR-5 ovarian): 24.9 µM | GI50 (NCI-H522 lung): 0.247 µM | TGI (NCI-H522 lung): 0.771 µM | TGI (SK-MEL-2 melanoma): 13.6 µM | TGI (SN12C renal): 25.4 µM | TGI (HT29 colon): 20.8 µM | TGI (786-0 renal): 10.9 µM | TGI (U251 CNS): 15.2 µM | TGI (SK-MEL-5 melanoma): 13.4 µM | TGI (HCT-15 colon): 6.21 µM | TGI (UACC-257 melanoma): 29.3 µM | TGI (LOX IMVI melanoma): 18 µM | TGI (RPMI-8226 leukemia): 10.1 µM | TGI (DMS 114 small cell lung): 15.6 µM | TGI (SF-268 CNS): 15.2 µM | TGI (EKVX NSCLC): 12.3 µM | TGI (SNB-19 CNS): 21.2 µM | TGI (CAKI-1 renal): 32.8 µM | TGI (K-562 leukemia): 10.6 µM | TGI (NCI-H23 lung): 11.2 µM | TGI (SNB-75 CNS): 30.1 µM | TGI (RXF-631 renal): 13.1 µM | TGI (DLD-1 colon): 11.2 µM | TGI (SNB-78 CNS): 52.6 µM | TGI (M19-MEL melanoma): 28.1 µM | TGI (HL-60(TB) leukemia): 2.51 µM | TGI (XF 498 CNS): 7.8 µM | TGI (TK-10 renal): 35.4 µM | TGI (HOP-18 NSCLC): 10.4 µM | TGI (HCC-2998 colon): > 60.6 µM | TGI (SK-MEL-28 melanoma): 8.29 µM | TGI (SF-539 CNS): 24.6 µM | TGI (MOLT-4 leukemia): 13.9 µM | TGI (HOP-92 NSCLC): 6.58 µM | TGI (NCI-H226 lung): 34.4 µM | TGI (UO-31 renal): 54.8 µM | TGI (OVCAR-4 ovarian): 24.5 µM | TGI (LXFL 529 NSCLC): 3.48 µM | TGI (IGROV1 ovarian): 35.7 µM | TGI (SW-620 colon): 9.22 µM | TGI (DMS 273 small cell lung): 68.7 µM | TGI (SF-295 CNS): > 56.7 µM | TGI (CCRF-CEM leukemia): 4.98 µM

C[Si](C)(C)CC(N)=O
TGI (OVCAR-3 ovarian): > 100 µM | TGI (ACHN renal): > 100 µM | TGI (HCT-116 colon): > 100 µM | TGI (KM12 colon): > 100 µM | TGI (OVCAR-8 ovarian): > 100 µM | TGI (COLO 205 colon): > 100 µM | TGI (UACC-62 melanoma): > 100 µM | TGI (HOP-62 NSCLC): > 100 µM | TGI (SK-OV-3 ovarian): > 100 µM | TGI (KM20L2 colon): > 100 µM | TGI (NCI-H460 lung): > 100 µM | TGI (M14 melanoma): > 100 µM | TGI (MALME-3M melanoma): > 100 µM | TGI (A549 NSCLC): > 100 µM | TGI (RXF 393 renal): > 100 µM | TGI (OVCAR-5 ovarian): > 100 µM | TGI (SK-MEL-2 melanoma): > 100 µM | TGI (SN12C renal): > 100 µM | TGI (HT29 colon): > 100 µM | TGI (786-0 renal): > 100 µM | TGI (U251 CNS): > 100 µM | TGI (SK-MEL-5 melanoma): > 100 µM | TGI (HCT-15 colon): > 100 µM | TGI (UACC-257 melanoma): > 100 µM | TGI (LOX IMVI melanoma): > 100 µM | TGI (RPMI-8226 leukemia): > 100 µM | TGI (DMS 114 small cell lung): > 100 µM | TGI (EKVX NSCLC): > 100 µM | TGI (SNB-19 CNS): > 100 µM | TGI (CAKI-1 renal): > 100 µM | TGI (K-562 leukemia): > 100 µM | TGI (SNB-75 CNS): > 100 µM | TGI (RXF-631 renal): > 100 µM | TGI (DLD-1 colon): > 100 µM | TGI (SNB-78 CNS): > 100 µM | TGI (M19-MEL melanoma): > 100 µM | TGI (HL-60(TB) leukemia): > 100 µM | TGI (XF 498 CNS): > 100 µM | TGI (TK-10 renal): > 100 µM | TGI (HOP-18 NSCLC): > 100 µM | TGI (HCC-2998 colon): > 100 µM | TGI (SK-MEL-28 melanoma): > 100 µM | TGI (MOLT-4 leukemia): > 100 µM | TGI (HOP-92 NSCLC): > 100 µM | TGI (NCI-H226 lung): > 100 µM | TGI (UO-31 renal): > 100 µM | TGI (OVCAR-4 ovarian): > 100 µM | TGI (LXFL 529 NSCLC): > 100 µM | TGI (IGROV1 ovarian): > 100 µM | TGI (SW-620 colon): > 100 µM | TGI (DMS 273 small cell lung): > 100 µM | TGI (SF-295 CNS): > 100 µM | TGI (CCRF-CEM leukemia): > 100 µM

— PubChem BioAssay (NCI)
